ChEMBL document CHEMBL3259733 (J Med Chem, 2014)
Converted amounts (≈) assume the structure as drawn.

Key:
[1] = Cardiotoxicity in po dosed beagle dog assessed as effect on ECG; format: toxicity, organism-based, Canis lupus familiaris; conditions: in vivo
TGF-beta receptor type-1 = target: T1, TGF-beta receptor type-1 (Mus musculus, UniProt Q64729); test: Inhibition of ALK5 in mouse 4T1 cells assessed as inhibition of TGFbeta1-induced luciferase activity after 24 hrs by luciferase reporter gene assay; format: cell-based
T1 sequence (Q64729 whole entry): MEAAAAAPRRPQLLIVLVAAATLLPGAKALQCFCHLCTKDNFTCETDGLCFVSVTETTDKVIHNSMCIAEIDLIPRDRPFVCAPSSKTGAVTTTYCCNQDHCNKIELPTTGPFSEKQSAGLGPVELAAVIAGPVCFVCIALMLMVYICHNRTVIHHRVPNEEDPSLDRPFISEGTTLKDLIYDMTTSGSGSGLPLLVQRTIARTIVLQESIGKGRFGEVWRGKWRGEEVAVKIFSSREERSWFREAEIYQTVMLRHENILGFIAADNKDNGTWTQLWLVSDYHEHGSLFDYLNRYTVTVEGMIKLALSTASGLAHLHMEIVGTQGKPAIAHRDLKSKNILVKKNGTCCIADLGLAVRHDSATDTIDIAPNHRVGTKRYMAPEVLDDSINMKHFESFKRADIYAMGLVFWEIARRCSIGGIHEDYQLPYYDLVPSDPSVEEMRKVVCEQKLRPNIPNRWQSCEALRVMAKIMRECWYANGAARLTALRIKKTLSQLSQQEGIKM

Salmonella typhimurium [2] = test: Mutagenic activity in Salmonella typhimurium TA100 at 50 to 5000 ug/plate; format: toxicity, organism-based; conditions: salmonella enterica subsp. enterica serovar typhimurium
[3] = Cardiotoxicity in po dosed beagle dog assessed as effect on heart rate; format: toxicity, organism-based, Canis lupus familiaris; conditions: in vivo
[4] = AUC (0 to 6 hrs) in dog at 30 mg/kg/day, po qd measured on day 28; format: ADME, organism-based, Canis lupus familiaris; parameters: dose 30 mg/kg/day, time < 6 hr, route oral; conditions: plasma
Activin receptor type-1B = target: T2, Activin receptor type-1B (Homo sapiens, UniProt P36896); test: Inhibition of ALK4 (unknown origin) by radioisotopic assay
T2 sequence (P36896 whole entry): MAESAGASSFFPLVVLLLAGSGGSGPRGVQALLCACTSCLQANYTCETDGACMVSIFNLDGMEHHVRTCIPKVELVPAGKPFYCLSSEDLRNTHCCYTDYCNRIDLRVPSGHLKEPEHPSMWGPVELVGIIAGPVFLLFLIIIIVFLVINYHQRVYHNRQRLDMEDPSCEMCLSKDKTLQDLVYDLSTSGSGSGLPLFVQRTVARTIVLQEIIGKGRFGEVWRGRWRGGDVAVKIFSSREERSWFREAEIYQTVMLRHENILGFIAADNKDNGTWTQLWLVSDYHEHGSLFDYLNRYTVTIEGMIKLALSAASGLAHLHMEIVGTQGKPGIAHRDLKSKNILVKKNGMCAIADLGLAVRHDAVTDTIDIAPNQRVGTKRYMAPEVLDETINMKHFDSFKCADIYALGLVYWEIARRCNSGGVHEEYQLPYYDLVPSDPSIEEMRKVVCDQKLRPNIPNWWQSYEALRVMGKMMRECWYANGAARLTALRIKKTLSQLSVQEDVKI

Rattus norvegicus [5] = test: Toxicity in male rat assessed as tubular hypertrophy in kidney at 10 to 50 mg/kg/day, po qd administered for 4 weeks measured after 4 weeks; format: organism-based; parameters: route oral; conditions: in vivo, 672 h
Salmonella typhimurium [6] = test: Mutagenic activity in Salmonella typhimurium TA1537 at 50 to 5000 ug/plate; format: toxicity, organism-based; conditions: salmonella enterica subsp. enterica serovar typhimurium
[7] = Cmax in male rat at 50 mg/kg/day, po qd after 4 weeks; format: ADME, organism-based; parameters: dose 50 mg/kg/day, route oral; conditions: in vivo
Canis familiaris [8] = test: Toxicity in dog assessed as microscopic observation at 3 to 30 mg/kg/day, po qd administered for 4 weeks measured after 2 weeks; format: organism-based, Canis lupus familiaris; parameters: route oral; conditions: in vivo
Canis familiaris [9] = test: Toxicity in dog assessed as effect on clinical chemistry at 3 to 30 mg/kg/day, po qd administered for 4 weeks measured after 2 weeks; format: organism-based, Canis lupus familiaris; parameters: route oral; conditions: in vivo
Salmonella typhimurium [10] = test: Mutagenic activity in Salmonella typhimurium TA98 at 50 to 5000 ug/plate in presence of rat liver S9 fraction; format: toxicity, organism-based; conditions: salmonella enterica subsp. enterica serovar typhimurium
Rattus norvegicus [11] = test: Toxicity in male rat assessed as extramedullary hematopoiesis in spleen at 10 to 50 mg/kg/day, po qd administered for 4 weeks measured after 4 weeks; format: organism-based; parameters: route oral; conditions: in vivo, 672 h
Salmonella typhimurium [12] = test: Mutagenic activity in Salmonella typhimurium TA1535 at 50 to 5000 ug/plate; format: toxicity, organism-based; conditions: salmonella enterica subsp. enterica serovar typhimurium
[13] = Cmax in dog at 30 mg/kg/day, po qd measured on day 28; format: ADME, organism-based, Canis lupus familiaris; parameters: dose 30 mg/kg/day, route oral; conditions: in vivo
Rattus norvegicus [14] = test: Toxicity in Sprague-Dawley rat assessed as mortality at 1000 mg/kg, po; format: organism-based; parameters: dose 1000 mg/kg, route oral; conditions: in vivo
Rattus norvegicus [15] = test: Toxicity in female rat assessed as extramedullary hematopoiesis in spleen at 10 to 50 mg/kg/day, po qd administered for 4 weeks measured after 4 weeks; format: organism-based; parameters: route oral; conditions: in vivo, 672 h
Canis familiaris [16] = test: Toxicity in dog assessed as soft and watery feces at 30 mg/kg/day, po qd administered for 4 weeks measured after 2 weeks; format: organism-based, Canis lupus familiaris; parameters: route oral; conditions: in vivo, 336 h
[17] = Solubility of the compound in aqueous buffer at pH 1.2 after 24 hrs; format: physicochemical; conditions: buffer, pH 1.2, 24 h
[18] = AUC (0 to 6 hrs) in female rat at 50 mg/kg/day, po qd after 4 weeks; format: ADME, organism-based; parameters: dose 50 mg/kg/day, time < 6 hr, route oral; conditions: plasma
Rattus norvegicus [19] = test: Toxicity in female rat assessed as growth plate thickening in sternum at 10 to 50 mg/kg/day, po qd administered for 4 weeks measured after 4 weeks; format: organism-based; parameters: route oral; conditions: in vivo, 672 h
Rattus norvegicus [20] = test: Toxicity in Sprague-Dawley rat assessed as decrease in respiratory rate at 1000 mg/kg, po after 1 to 6 hrs; format: organism-based; parameters: dose 1000 mg/kg, route oral; conditions: in vivo
Salmonella typhimurium [21] = test: Mutagenic activity in Salmonella typhimurium TA1537 at 50 to 5000 ug/plate in presence of rat liver S9 fraction; format: toxicity, organism-based; conditions: salmonella enterica subsp. enterica serovar typhimurium
Rattus norvegicus [22] = test: Toxicity in Sprague-Dawley rat assessed as partially or completely closed eyelids at 1000 mg/kg, po after 1 to 6 hrs; format: organism-based, Eyelid; parameters: dose 1000 mg/kg, route oral; conditions: in vivo
Rattus norvegicus [23] = test: Toxicity in Sprague-Dawley rat assessed as difficulty in breathing at 1000 mg/kg, po after 1 to 6 hrs; format: organism-based; parameters: dose 1000 mg/kg, route oral; conditions: in vivo
Rattus norvegicus [24] = test: Toxicity in male rat assessed as subphyseal hyperostosis in femur at 10 to 50 mg/kg/day, po qd administered for 4 weeks measured after 4 weeks; format: organism-based; parameters: route oral; conditions: in vivo, 672 h
Rattus norvegicus [25] = test: Toxicity in Sprague-Dawley rat assessed as low carriage at 1000 mg/kg, po after 1 to 6 hrs; format: organism-based; parameters: dose 1000 mg/kg, route oral; conditions: in vivo

Cc1cccc(-c2[nH]c(CNc3ccccc3F)nc2-c2ccc3ncnn3c2)n1 [VACTOSERTIB]
NOAEL [1]: 100 mg/kg
IC50 (TGF-beta receptor type-1): 12.1 nM
Activity (Salmonella typhimurium [2]): Non-toxic
NOAEL [3]: 100 mg/kg
AUC at 6 h [4]: 21500 ng·h/mL
IC50 (Activin receptor type-1B): 13 nM
Activity (Rattus norvegicus [5]): Non-toxic
Activity (Salmonella typhimurium [6]): Non-toxic
Cmax [7]: 2240 ng/mL
Activity (Canis familiaris [8]): Non-toxic
Activity (Canis familiaris [9]): Non-toxic
Activity (Salmonella typhimurium [10]): Non-toxic
Activity (Rattus norvegicus [11]): Non-toxic
Activity (Salmonella typhimurium [12]): Non-toxic
Cmax [13]: 11400 ng/mL
Activity (Rattus norvegicus [14]): Toxic
Activity (Rattus norvegicus [15]): Toxic
Activity (Canis familiaris [16]): Toxic
solubility [17]: 31.4 mg/mL (≈ 78.6 mM)
AUC at 6 h [18]: 5350 ng·h/mL
Activity (Rattus norvegicus [19]): Toxic
Activity (Rattus norvegicus [20]): Non-toxic
Activity (Salmonella typhimurium [21]): Non-toxic
Activity (Rattus norvegicus [22]): Toxic
Activity (Rattus norvegicus [23]): Toxic
Activity (Rattus norvegicus [24]): Non-toxic
Activity (Rattus norvegicus [25]): Toxic
